Measured values from patent US12186348B2, “Glycan strands and oligosaccharides derived from Streptococcus bacteria” (Meharry Medical College, priority 2018, dated 2025).

Assays:
A3G = A3G mRNA expression in THP-1 cells by qRT-PCR; assay type: cell-based, human
Protocol: Equal volumes of an S. cristatus CC5A whole cell extract (CC5A1E), fraction A (glycan strands and peptides), fraction B (glycan strands), and CC5Ap were used to treat THP-1 cells for 16 hours. THP-1 cell line is a human monocytic cell line derived from acute monocytic leukemia. The THP-1 cells were obtained from the NIH AIDS Reagent Program. qRT-PCR was used to detect the relative expression of A3G mRNA in THP-1 cells. PBS treated THP-1 cells were used as a control.
The cell wall of S. Mu was isolated from the bacteria and the isolated cell wall was subjected to the cell component isolation shown in FIG. 2A. Oligosaccharide molecules (from the same amount of bacteria) of CC5Ap and S. Mu were used to treat THP-1 cells. The THP-1 cells were obtained from the NIH AIDS Reagent Program. PBS and CC5A/E were used as the controls. A3G expression was measured by qRT-PCR.
(§1) To determine whether CC5Ap induces MX2 expression, THP-1 cells were treated with different doses (units) of CC5Ap for 16 hours. The THP-1 cells were obtained from the NIH AIDS Reagent Program. One unit of CC5Ap is defined as the amount of CC5Ap needed to induce a 3-fold increase in A3G mRNA expression over a period of 16 hours, using 5×10^5 THP-1 cells in 500 μl of cell culture medium. MX2 expression was measured by qRT-PCR. After treatment the cells were either subjected to measuring MX2 expression by Western-blot analyses or infected with HIV-1.
(§2) Synthetic G-M from Toronto Research Chemicals (Cat: A178230) was purchased. The synthetic G-M structure was confirmed by 1H NMR (D2O) and MS. Different doses of G-M were used to treat THP-1 cells. The THP-1 cells were obtained from the NIH AIDS Reagent Program. Specifically, 50 μg, 100 μg, 200 μg and 300 μg/ml G-M (shown in FIGS. 8A-8C as G-M 0.5, 1, 2, 3, respectively) were used to treat THP-1 cells. 1 unit CC5A A/E and CC5Ap were used as the controls. The cells were treated overnight. The mRNA levels of A3G and MX2 were measured by qRT-PCR.

MX2 = MX2 expression in THP-1 cells (qRT-PCR, Western-blot); assay type: cell-based, human; conditions: THP-1 cells, 50, 100, 200, 300 μg/ml, overnight (FIG. 8B)
Protocol: as §1, §2

HIV IIIB = HIV IIIB replication in THP-1 cells, nine days culture; assay type: cell-based; conditions: THP-1 cells pre-treated 1 hour, qRT-PCR (FIG. 8C)
Protocol: To determine whether G-M inhibits HIV IIIB replication, THP-1 cells were pre-treated 1 hour with G-M or CC5Ap. 100 ng […] content of IIIB was added into the cell culture to infect the cells overnight. Post-infection, cells were washed 2 times and cultured for nine days. The viral supernatant was subjected to qRT-PCR to measure viral release.

THP-1 cells = experiment: Cell number of G-M treated THP-1 samples; assay type: cell-based, human
[1] = test system: Vpr-BlaM containing HIV NL4-3 virus; experiment: HIV-1 viral entry assay (Vpr-BlaM, CCF2) in THP-1 cells; assay type: cell-based; conditions: THP-1 cells pre-treated overnight, compared to untreated control (FIGS. 12, 14)
From the text: To determine whether the disclosed molecules have effects on HIV-1 viral entry, a sensitive and specific enzyme-based assay developed by Marielle et al (6) was used. THP-1 cells were pre-treated with AMD3100 (HIV entry inhibitor), CC5A/PBS (cell lysate of Streptococcus Cristatus CC5A), and different amounts of G-M (GlcNAc-MurNAc, which is a disaccharide molecule of glycan strain) overnight. PBS treated THP-1 cells were used as the untreated control. After washing, Vpr-BlaM containing HIV NL4-3 virus was used to infect the cells. After washing again, the cells were subjected to CCF2 staining overnight. The following day, the cells were analyzed by FACSAria III for CCF2 (green/FITC-A) and cleaved CCF2 (DAPI-A) florescence.
THP-1 cells were treated with CC5Ap and with cell lysate from Streptococcus Mutant (S. MuP). The protocol described in Example 10 was followed to test the effects of CC5Ap and S.MuP on HIV viral entry.

## CC(=O)N[C@H]1[C@H](O[C@H]2[C@H](O[C@H](C)C(=O)O)[C@@H](NC(C)=O)C(O)O[C@@H]2CO)O[C@H](CO)[C@@H](O)[C@@H]1O (stereo partly drawn) [G-M, N-Acetyl-D-glucosamine-(1-4)-N-acetylmuramic acid]
A3G; 1 unit = amount inducing 3-fold A3G mRNA increase in 16 hours, 5×10^5 THP-1 cells in 500 μl
  experimentally determined activity of synthetic G-M: 0.005 units/μg
A3G; THP-1 cells, 50, 100, 200, 300 μg/ml, overnight (FIG. 8A)
  A3G mRNA expression: enhanced A3G mRNA expression (FIG. 8A) and MX2 mRNA expression (FIG. 8B) in a dose-dependent manner
A3G; based on G-M concentration of CC5Ap prep (about 100 μg/mL) and activity of synthetic G-M
  share of the total CC5Ap activity: about 5%
MX2
  MX2 mRNA expression: enhanced A3G mRNA expression (FIG. 8A) and MX2 mRNA expression (FIG. 8B) in a dose-dependent manner
HIV IIIB
  HIV IIIB replication (viral release): inhibits HIV IIIB replication in a dose-dependent manner
THP-1 cells
  noticeable cell number difference between PBS and treated samples: not observed
[1]
  relative HIV entry: reduced HIV entry dramatically
